Data published in patent US20250115597A1, “TYK2 INHIBITORS AND COMPOSITIONS AND METHODS THEREOF” (LYNK PHARMACEUTICALS CO. LTD., priority 2021, published 2025).

target: T1, Ba/F3-FL-TYK2-P760L cells (Homo sapiens, UniProt P29597, P760L, cells depend on it); assay: Anti-proliferative assay, Ba/F3-FL-TYK2-P760L cells (Cell-Titer Glo); type: cell-based; conditions: 72 h, read-out: BaF3-FL-T2P760L IC50
T1 construct: BaF3-FL-T2P760L (nM)
Experimental: Anti-Proliferative Assay Dimerization domain of Tel protein fused with JAK kinase domain was permanently transduced into Ba/F3 cells, whose proliferation is dependent on JAK activity in the absence of IL-3 induction. These engineered Ba/F3 cells (Ba/F3-FL-TYK2-[…], Ba/F3-TEL-TYK2 and Ba/F3-TEL-JAK2) were used to monitor JAK inhibitory activities of the compounds in the cellular. […] Cells were seeded at 2000/well of white flat bottom 96-well plates. The well containing medium only was used as background control. After 24 h growth, cells were treated with compounds. The test compounds were dissolved in DMSO to a stock concentration of 20 mM. 3-fold serially diluted compounds for 9 concentrations with top concentration of 20 μM was added into the each well. […] The cells continued to grow at 37° C. in 5% CO2 for 72 h after compound treatment. The viability was measured by cellular ATP determination using the Cell-Titer Glo luciferase reagent (Promega). The Luminescence value was recorded by a multi-label reader Envision (PerkinElmer).

T1 sequence (P29597 whole entry P760L): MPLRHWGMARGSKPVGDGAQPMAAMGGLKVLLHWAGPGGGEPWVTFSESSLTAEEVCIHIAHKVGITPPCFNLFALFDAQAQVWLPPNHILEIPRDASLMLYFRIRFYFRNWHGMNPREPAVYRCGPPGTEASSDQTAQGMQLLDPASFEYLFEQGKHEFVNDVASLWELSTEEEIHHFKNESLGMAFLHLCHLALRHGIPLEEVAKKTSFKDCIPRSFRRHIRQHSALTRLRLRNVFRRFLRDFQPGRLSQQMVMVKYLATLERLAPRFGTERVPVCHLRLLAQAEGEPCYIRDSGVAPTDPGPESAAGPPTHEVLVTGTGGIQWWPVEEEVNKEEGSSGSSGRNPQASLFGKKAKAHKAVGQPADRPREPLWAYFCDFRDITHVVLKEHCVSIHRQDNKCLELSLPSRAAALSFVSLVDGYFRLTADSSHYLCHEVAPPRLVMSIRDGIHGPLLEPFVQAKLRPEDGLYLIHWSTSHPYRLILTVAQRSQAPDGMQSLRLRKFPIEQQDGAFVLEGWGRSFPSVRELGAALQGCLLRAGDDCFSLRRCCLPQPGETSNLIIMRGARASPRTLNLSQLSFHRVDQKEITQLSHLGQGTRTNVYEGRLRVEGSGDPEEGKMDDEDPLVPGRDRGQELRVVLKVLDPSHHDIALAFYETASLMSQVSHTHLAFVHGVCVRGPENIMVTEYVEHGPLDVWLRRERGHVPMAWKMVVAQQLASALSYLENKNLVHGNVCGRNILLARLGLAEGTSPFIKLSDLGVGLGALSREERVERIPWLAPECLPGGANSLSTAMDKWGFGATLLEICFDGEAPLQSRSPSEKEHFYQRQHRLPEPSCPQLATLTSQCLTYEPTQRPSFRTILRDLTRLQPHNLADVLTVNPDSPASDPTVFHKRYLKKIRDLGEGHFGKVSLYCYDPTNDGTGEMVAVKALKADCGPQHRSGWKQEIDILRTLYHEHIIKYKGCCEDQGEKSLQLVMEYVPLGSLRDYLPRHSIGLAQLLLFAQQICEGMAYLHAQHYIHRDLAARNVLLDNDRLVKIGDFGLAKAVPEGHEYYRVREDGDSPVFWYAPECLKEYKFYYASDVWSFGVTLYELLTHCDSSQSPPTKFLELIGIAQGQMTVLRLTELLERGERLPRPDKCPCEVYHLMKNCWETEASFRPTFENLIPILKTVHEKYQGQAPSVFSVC

Compound | GI50 [nM]
CNC(=O)c1cnc(NC(=O)C2CC2)nc1Nc1cn(C)c2ccn(C)c(=O)c12 [Example 1, 2-(Cyclopropanecarboxamido)-4-((1,5-dimethyl-4-oxo-4,5-dihydro-1H-pyrrolo[3,2-c]pyridin-3-yl)amino)-N-methylpyrimidine-5-carboxamide] | 483
[2H]C([2H])([2H])NC(=O)c1cnc(Nc2cnn(C3CC3)c2)nc1Nc1cccc(-c2ncn(C)n2)c1OC [Example 2, 2-[(1-Cyclopropylpyrazol-4-yl)amino]-4-[2-methoxy-3-(1-methyl-1,2,4-triazol-3-yl)anilino]-N-(trideuteromethyl)pyrimidine-5-carboxamide] | 199
[2H]C([2H])([2H])NC(=O)c1cnc(Nc2ccc(F)cc2)nc1Nc1cn(C)c2ccn(C)c(=O)c12 [Example 4, 4-((1,5-Dimethyl-4-oxo-4,5-dihydro-1H-pyrrolo[3,2-c]pyridin-3-yl)amino)-2-((4-fluorophenyl)amino)-N-(methyl-d3)pyrimidine-5-carboxamide] | 548
CNC(=O)c1cnc(Nc2ccc(F)cn2)nc1Nc1cccc(-c2ncn(C)n2)c1OC [Example 5, 2-((5-Fluoropyridin-2-yl)amino)-4-((2-methoxy-3-(1-methyl-1H-1,2,4-triazol-3-yl)phenyl)amino)-N-methylpyrimidine-5-carboxamide] | 1350
CNC(=O)c1cnc(Nc2ccc(F)cc2)nc1Nc1cccc(OC2CCOCC2)c1OC [Example 6, 2-((4-Fluorophenyl)amino)-4-((2-methoxy-3-((tetrahydro-2H-pyran-4-yl)oxy)phenyl)amino)-N-methylpyrimidine-5-carboxamide] | 897
CNC(=O)c1cnc(NC(=O)C2CC2)nc1Nc1cccc(OC2CCOCC2)c1OC [Example 7, 2-(Cyclopropanecarboxamido)-4-((2-methoxy-3-((tetrahydro-2H-pyran-4-yl)oxy)phenyl)amino)-N-methylpyrimidine-5-carboxamide] | 8020
CCn1ccc2c(c(Nc3nc(Nc4ccc(F)cc4F)ncc3C(=O)NC)cn2C)c1=O [Example 9, 2-((2,4-Difluorophenyl)amino)-4-((5-ethyl-1-methyl-4-oxo-4,5-dihydro-1H-pyrrolo[3,2-c]pyridin-3-yl)amino)-N-methylpyrimidine-5-carboxamide] | 740
CNC(=O)c1cnc(NC(=O)C2CC2)cc1Nc1cccc(OC2CCOCC2)c1OC [Example 13, 6-(Cyclopropanecarboxamido)-4-((2-methoxy-3-((tetrahydro-2H-pyran-4-yl)oxy)phenyl)amino)-N-methylnicotinamide] | 6410
CNC(=O)c1nnc(Nc2ccc(F)cn2)cc1Nc1cccc(OC2CCOCC2)c1OC [Example 25, 6-((5-Fluoropyridin-2-yl)amino)-4-((2-methoxy-3-((tetrahydro-2H-pyran-4-yl)oxy)phenyl)amino)-N-methylpyridazine-3-carboxamide] | 7820
CNC(=O)c1nnc(NC(=O)C2CC2)cc1Nc1cccc2cc[nH]c(=O)c12 [Example 26, 6-(Cyclopropanecarboxamido)-N-methyl-4-((1-oxo-1,2-dihydroisoquinolin-8-yl)amino)pyridazine-3-carboxamide] | > 20000
[2H]C([2H])([2H])NC(=O)c1cnc(Nc2ccc(F)cc2)nc1Nc1csc2ccn(C)c(=O)c12 [Example 29, 2-((4-Fluorophenyl)amino)-N-(methyl-d3)-4-((5-methyl-4-oxo-4,5-dihydrothieno [3,2-c]pyridin-3-yl)amino) pyrimidine-5-carboxamide] | > 20000
[2H]C([2H])([2H])NC(=O)c1cnc(Nc2cnn(C3CCOCC3)c2)nc1Nc1cccc(-c2ncn(C)n2)c1OC [Example 30, 4-((2-Methoxy-3-(1-methyl-1H-1,2,4-triazol-3-yl)phenyl)amino)-N-(methyl-d3)-2-((1-(tetrahydro-2H-pyran-4-yl)-1H-pyrazol-4-yl)amino)pyrimidine-5-carboxamide] | 199

Results, then the molecule that gave them:

GI50 [nM] | Compound
205 | [2H]C([2H])([2H])NC(=O)c1cnc(NC(=O)C2CC2)cc1Nc1csc2cnn(C(C)C(F)(F)F)c(=O)c12 (single isomer, unassigned) [Example 185A, (R*)-6-(cyclopropanecarboxamido)-N-(methyl-d3)-4-((4-oxo-5-(1,1,1-trifluoropropan-2-yl)-4,5-dihydrothieno[2,3-d]pyridazin-3-yl)amino)nicotinamide]
912 | [2H]C([2H])([2H])NC(=O)c1cnc(NC(=O)C2CC2)cc1Nc1csc2cnn(C(C)C(F)(F)F)c(=O)c12 (single isomer, unassigned) [Example 185B, (S*)-6-(Cyclopropanecarboxamido)-N-(methyl-d3)-4-((4-oxo-5-(1,1,1-trifluoropropan-2-yl)-4,5-dihydrothieno[2,3-d]pyridazin-3-yl)amino)nicotinamide]
327 | [2H]C([2H])([2H])NC(=O)c1cnc(NC(=O)C2CC2)cc1Nc1cn(C)c2ccn(C(C)C(F)(F)F)c(=O)c12 (single isomer, unassigned) [Example 190B, (S*)-6-(Cyclopropanecarboxamido)-N-(methyl-d3)-4-((1-methyl-4-oxo-5-(1,1,1-trifluoropropan-2-yl)-4,5-dihydro-1H-pyrrolo[3,2-c]pyridin-3-yl)amino)nicotinamide]
241 | CNC(=O)c1cnc(NC(=O)C2CC2)cc1Nc1cn(CCOC)c2ccn([C@H](C)C(F)(F)F)c(=O)c12 (single isomer, unassigned) [Example 201A, (R*)-6-(Cyclopropanecarboxamido)-4-((1-(2-methoxyethyl)-4-oxo-5-(1,1,1-trifluoropropan-2-yl)-4,5-dihydro-1H-pyrrolo[3,2-c]pyridin-3-yl)amino)-N-(methyl-d3)nicotinamide]
96.2 | CNC(=O)c1cnc(NC(=O)C2CC2)cc1Nc1cn(C)c2ncn([C@H](C)C(F)(F)F)c(=O)c12 (single isomer, unassigned) [Example 234A, (R*)-6-(cyclopropanecarboxamido)-N-(methyl-d3)-4-((7-methyl-4-oxo-3-(1,1,1-trifluoropropan-2-yl)-4,7-dihydro-3H-pyrrolo[2,3-d]pyrimidin-5-yl)amino)nicotinamide]
599 | CNC(=O)c1cnc(NC(=O)C2CC2)cc1Nc1cn(C)c2ncn([C@@H](C)C(F)(F)F)c(=O)c12 (single isomer, unassigned) [Example 234B, (S*)-6-(cyclopropanecarboxamido)-N-(methyl-d3)-4-((7-methyl-4-oxo-3-(1,1,1-trifluoropropan-2-yl)-4,7-dihydro-3H-pyrrolo[2,3-d]pyrimidin-5-yl)amino)nicotinamide]
179 | CCn1cc(Nc2cc(NC(=O)C3CC3)ncc2C(=O)NC)c2c(=O)n([C@H](C)C(F)(F)F)cnc21 (single isomer, unassigned) [Example 254A, (R*)-6-(cyclopropanecarboxamido)-4-((7-ethyl-4-oxo-3-(1,1,1-trifluoropropan-2-yl)-4,7-dihydro-3H-pyrrolo[2,3-d]pyrimidin-5-yl)amino)-N-(methyl-d3)nicotinamide]
934 | CCn1cc(Nc2cc(NC(=O)C3CC3)ncc2C(=O)NC)c2c(=O)n([C@@H](C)C(F)(F)F)cnc21 (single isomer, unassigned) [Example 254B, (S*)-6-(cyclopropanecarboxamido)-4-((7-ethyl-4-oxo-3-(1,1,1-trifluoropropan-2-yl)-4,7-dihydro-3H-pyrrolo[2,3-d]pyrimidin-5-yl)amino)-N-(methyl-d3)nicotinamide]
